# Assay results from PubChem BioAssay (NCI).
# Values joined by “and” are separate entries in the source; they are usually repeats but may differ in a detail not shown here. Equal entries are not always repeated.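 All cell lines were grown in 96-well plates and treated with compound for 48 hours. GI50 marks 50% less growth. TGI marks complete inhibition of growth.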
# Legend:
# Test in all cases: growth of human tumour cells (NCI), 48 h
# SF-539 CNS = system: SF-539 CNS
# UO-31 renal = system: UO-31 renal
# SR leukemia = system: SR leukemia
# DU-145 prostate = system: DU-145 prostate
# SNB-75 CNS = system: SNB-75 CNS
# SN12C renal = system: SN12C renal
# MOLT-4 leukemia = system: MOLT-4 leukemia
# NCI-H226 lung = system: NCI-H226 lung
# SF-268 CNS = system: SF-268 CNS
# SNB-19 CNS = system: SNB-19 CNS
Compound,GI50 (SF-539 CNS),TGI (SF-539 CNS),GI50 (UO-31 renal),TGI (UO-31 renal),GI50 (SR leukemia) [µM],TGI (SR leukemia) [µM],GI50 (DU-145 prostate) [µM],TGI (DU-145 prostate),GI50 (SNB-75 CNS),TGI (SNB-75 CNS),GI50 (SN12C renal) [µM],TGI (SN12C renal),GI50 (MOLT-4 leukemia) [µM],TGI (MOLT-4 leukemia) [µM],GI50 (NCI-H226 lung),TGI (NCI-H226 lung),GI50 (SF-268 CNS) [µM],TGI (SF-268 CNS),GI50 (SNB-19 CNS),TGI (SNB-19 CNS)
CC(=O)/C=C/c1ccc(OCc2ccc(Cl)cc2)cc1,> 1000 µM,> 1000 µM,556 µM,> 1000 µM,564,> 1000,636,> 1000 µM,457 µM,> 1000 µM,893,> 1000 µM,240,> 1000,> 1000 µM,> 1000 µM,670,> 1000 µM,> 1000 µM,> 1000 µM
Cc1nc2ccccc2nc1N=Nc1ccccc1,27.9 µM,> 100 µM,7.99 µM,> 100 µM,19,> 100,36.1,> 100 µM,18.3 µM,> 100 µM,30,> 100 µM,14.9,43.2,24.6 µM,> 100 µM,22.7,> 100 µM,50.3 µM,> 100 µM
COC(=O)[C@H](Cc1cn(C)cn1)NC(=O)[C@H](C)NC(=O)Nc1cc(C(F)(F)F)cc(C(F)(F)F)c1,> 10 µM,> 10 µM,> 10 µM,> 10 µM,> 10,> 10,> 10,> 10 µM,> 10 µM,> 10 µM,> 10,> 10 µM,> 10,> 10,> 10 µM,> 10 µM,> 10,> 10 µM,> 10 µM,> 10 µM
COc1c(N2CCN(CN3C(=O)C(=O)c4cc(Cl)ccc43)C(C)C2)c(F)cc2c(=O)c(C(=O)O)cn(C3CC3)c12 (stereo unspecified),> 100 µM,> 100 µM,> 100 µM,> 100 µM,4.51,> 100,70.6,> 100 µM,> 100 µM,> 100 µM,48.2,> 100 µM,4.98,> 100,71 µM,> 100 µM,26.8,> 100 µM,92.2 µM,> 100 µM
Cn1cc(C2=C(Nc3ccccc3)C(=O)NC2=O)c2ccccc21,> 25 µM,> 25 µM,> 19.5 µM,> 25 µM,> 25,> 25,> 25,> 25 µM,> 25 µM,> 25 µM,> 25,> 25 µM,> 23.1,> 25,> 25 µM,> 25 µM,> 25,> 25 µM,> 25 µM,> 25 µM
N#CC(C#N)=C/C=C(\Sc1ccc(F)cc1Cl)c1ccc(Cl)cc1,0.391 µM,3.59 µM,1.78 µM,> 40.3 µM,0.0756,> 100,0.657,8.55 µM,10.3 µM,31 µM,0.365,1.34 µM,0.194,> 100,–,–,0.457,1.9 µM,4.54 µM,23.6 µM
O=C(NCCCl)SCCO,–,> 100 µM,–,> 100 µM,–,> 100,–,–,–,> 100 µM,–,> 100 µM,–,> 100,–,> 100 µM,–,> 100 µM,–,> 100 µM
COC(=O)C(C(=O)OC)C(Br)C(Br)C(Br)c1ccccc1 (stereo unspecified),18.2 µM,33.7 µM,1.74 µM,3.42 µM,2.47,6.39,10.6,23 µM,12.5 µM,25 µM,14,27.3 µM,4.11,16.8,15.1 µM,29.5 µM,14.6,29.6 µM,–,–
NC(=O)NC1C(C(=O)O)N(Cc2ccccc2)C(=O)N1Cc1ccccc1 (stereo unspecified),–,> 100 µM,–,> 100 µM,–,> 100,–,–,–,> 100 µM,–,–,–,10.9,–,> 100 µM,–,> 100 µM,–,> 100 µM
O=C1c2cccnc2C(=O)c2c1c(C(=O)OCCCN1CCCCC1)c1ccccn21,< 0.0106 µM,0.0435 µM,< 0.01 µM,< 0.01 µM,< 0.01,> 100,< 0.01,1.29 µM,< 0.01 µM,< 0.0187 µM,–,–,0.1,> 36.4,< 0.01 µM,0.0318 µM,< 0.01,0.207 µM,< 0.01 µM,1.83 µM
CC(=O)NC(C=O)C(O[C@H](C)C(=O)NC(C)C(=O)NC(CCC(N)=O)C(=O)OCc1ccccc1)C(O)C(O)COC(=O)CCNc1c2ccccc2nc2cccc([N+](=O)[O-])c12 (stereo partly specified),–,20.2 µM,–,35.9 µM,–,2.69,–,–,–,17.8 µM,–,5.62 µM,–,14.8,–,6.89 µM,–,5.11 µM,–,17.4 µM
O=c1[nH]cnc2c(COCCO)c[nH]c12,–,> 100 µM,–,> 100 µM,–,> 100,–,–,–,> 100 µM,–,> 100 µM,–,> 100,–,> 100 µM,–,> 100 µM,–,> 100 µM
COc1cccc(SSc2cccc(OC)c2C(=O)O)c1C(=O)O,–,> 100 µM,–,> 100 µM,–,> 100,–,–,–,> 100 µM,–,> 100 µM,–,> 100,–,> 100 µM,–,> 100 µM,–,–
COc1ccc(-c2c3c(nc4n[nH]c(-c5ccc(Cl)cc5)c24)-c2ccccc2C(=O)C3=O)cc1,1.7 µM,3.47 µM,1.17 µM,2.9 µM,2.57,> 100,1.59,2.96 µM,1.19 µM,2.76 µM,1.66,3.82 µM,2.44,14.9,–,–,1.4,2.99 µM,1.83 µM,3.7 µM
N#Cc1cccc(C=NC23CC4CC(CC(C4)C2)C3)c1,–,> 100 µM,–,> 100 µM,–,> 100,–,–,–,–,–,> 100 µM,–,> 100,–,> 100 µM,–,> 100 µM,–,> 100 µM
CN1CCN(c2nc(-c3csc(-c4cccs4)n3)cc3ccccc23)CC1,1.64 µM,3.04 µM,1.66 µM,3.17 µM,3.1,–,1.8,3.34 µM,1.36 µM,2.91 µM,1.81,3.47 µM,2.03,4.15,–,–,1.82,3.6 µM,2.14 µM,5.36 µM
CCN1C(=NCCO)NS(=O)(=O)c2ccccc21,–,> 100 µM,–,> 100 µM,–,> 100,–,> 100 µM,–,–,–,> 100 µM,–,> 100,–,> 100 µM,–,> 100 µM,–,> 100 µM
Cn1cc(C(=O)c2ccccc2)cc(C(=O)c2ccccc2)c1=O,–,> 100 µM,–,> 100 µM,–,> 100,–,–,–,> 100 µM,–,> 100 µM,–,> 100,–,> 100 µM,–,> 100 µM,–,> 100 µM

Compound,GI50 (SF-539 CNS),TGI (SF-539 CNS),GI50 (UO-31 renal),TGI (UO-31 renal),GI50 (SR leukemia) [µM],TGI (SR leukemia) [µM],GI50 (DU-145 prostate) [µM],TGI (DU-145 prostate),GI50 (SNB-75 CNS),TGI (SNB-75 CNS),GI50 (SN12C renal) [µM],TGI (SN12C renal),GI50 (MOLT-4 leukemia) [µM],TGI (MOLT-4 leukemia) [µM],GI50 (NCI-H226 lung),TGI (NCI-H226 lung),GI50 (SF-268 CNS) [µM],TGI (SF-268 CNS),GI50 (SNB-19 CNS),TGI (SNB-19 CNS)
Cc1ccc(NC(=O)CCc2n[nH]c(=S)o2)cc1,–,> 100 µM,–,> 100 µM,–,> 100,–,–,–,> 100 µM,–,> 100 µM,–,> 100,–,> 100 µM,–,> 100 µM,–,> 100 µM
CCOc1ccc2c(c1)c(CC(=O)O)cn2C,–,> 100 µM,–,> 100 µM,–,> 100,–,> 100 µM,–,–,–,> 100 µM,–,> 100,–,> 100 µM,–,> 100 µM,–,> 100 µM
CC(=O)c1ccc(NC(=O)COC(=O)c2cccc3c(=O)c4ccccc4[nH]c23)cc1,–,33.9 µM,–,> 100 µM,–,> 100,–,–,–,31.5 µM,–,> 100 µM,–,> 100,–,46.2 µM,–,> 100 µM,–,68.6 µM
C/C(=N\NC(=S)N1CCCCCC1)c1cccc2cccnc12,–,5.65 µM,–,> 44.2 µM,–,14.5,–,> 100 µM,–,> 91.6 µM,–,–,–,> 100,–,–,–,> 100 µM,–,> 44.2 µM
C=C(C(=C)P(=S)(C(C)C)C(C)C)P(=S)(C(C)C)C(C)C,–,> 100 µM,–,> 100 µM,–,> 100,–,–,–,> 100 µM,–,> 100 µM,–,> 100,–,> 100 µM,–,> 100 µM,–,> 100 µM
CCCCCCCCCCCc1c(O)c(=O)c2c(oc3c(=O)c(CCCCCCCCCCC)c(O)c(=O)c3n2-c2ccc(N(C)C)cc2)c1=O,–,39.7 µM,–,–,–,> 100,–,–,–,62.4 µM,–,36.8 µM,–,> 100,–,36.3 µM,–,58.1 µM,–,58.9 µM
OCCN(CCO)c1cccc(N(CCO)CCO)n1,–,–,–,> 100 µM,–,> 100,–,–,–,> 100 µM,–,–,–,> 100,–,–,–,> 100 µM,–,> 100 µM
COc1ccc2c(c1)-c1nn(CCCN(C)C)c3ccc([N+](=O)[O-])c(c13)N2,0.163 µM and 0.602 µM,3.17 µM and 7.49 µM,0.165 µM and 0.435 µM,1.9 µM and 6.16 µM,1.27,–,–,4.72 µM and 2.86 µM,0.197 µM and 0.573 µM,1.02 µM and 3.85 µM,–,3.68 µM and 10.1 µM,–,–,0.25 µM and 0.664 µM,3.75 µM and 6.86 µM,–,6.12 µM and 6.94 µM,0.192 µM and 0.59 µM,6.33 µM and 11.3 µM
CC([O-])=C1C(=O)c2ccccc2C1=O.CC([O-])=C1C(=O)c2ccccc2C1=O.CC[O-].CC[O-].[Ti+4],> 100 µM,> 100 µM,> 100 µM,> 100 µM,> 100,> 100,–,–,> 100 µM,> 100 µM,> 100,> 100 µM,> 100,> 100,> 100 µM,> 100 µM,> 100,> 100 µM,44.1 µM,> 100 µM
O=C1CC/C(=C/COc2cc(=O)oc3ccccc23)O1,6.01 µM,21.1 µM,7.65 µM,21.2 µM,–,–,4.32,17.6 µM,1.58 µM,11.8 µM,14.7,36 µM,3.78,> 100,17.9 µM,73.5 µM,16.2,51.7 µM,10.9 µM,26.7 µM
COC(=O)Cc1cc(=O)[nH]c2c1C(=O)CCC2,–,> 100 µM,–,> 100 µM,–,> 100,–,–,–,–,–,> 100 µM,–,> 100,–,> 100 µM,–,> 100 µM,–,> 100 µM
O=c1c2cc3c(cc2c2cccc4c2n1CCC4)OCO3,–,> 100 µM,–,> 100 µM,–,91.3,–,–,–,> 100 µM,–,> 100 µM,–,> 100,–,> 100 µM,–,–,–,> 100 µM
COc1cccc(N2C(=O)C3C4C=C5c6ccccc6N(c6ccccc6)C5(C3C2=O)[C@H]2C(=O)N(c3cccc(OC)c3)C(=O)[C@@H]42)c1 (stereo partly specified),–,> 100 µM,–,> 100 µM,–,> 100,–,–,–,> 100 µM,–,> 100 µM,–,> 100,–,> 100 µM,–,> 100 µM,–,> 100 µM
COc1ccc(-c2csc(NC(=O)CN3CCN(c4cc5c(cc4F)c(=O)c(C(=O)O)cn5C4CC4)CC3)n2)cc1,3.61 µM,> 100 µM,3.37 µM,> 100 µM,2.96,> 100,3.35,> 100 µM,3.31 µM,34.2 µM,3.37,> 100 µM,–,–,4.96 µM,> 100 µM,4.28,> 100 µM,4.1 µM,> 100 µM
COc1ccc(C(=O)C#Cc2c[nH]c(=O)[nH]c2=O)cc1,–,19.3 µM,–,35.2 µM,–,8.38,–,–,–,45.5 µM,–,19.4 µM,–,8.19,–,42.4 µM,–,55.3 µM,–,44.7 µM
Cc1cc(Cl)ccc1C(=O)c1ccc2ccccc2c1C(=O)O,–,> 100 µM,–,> 100 µM,–,> 100,–,> 100 µM,–,> 100 µM,–,–,–,> 100,–,> 100 µM,–,> 100 µM,–,> 100 µM
CCC(C)C(=O)OCC(=O)c1ccc(-c2ccccc2)cc1 (stereo unspecified),–,> 100 µM,–,> 100 µM,–,> 100,–,> 100 µM,–,> 100 µM,–,> 100 µM,–,> 100,–,–,–,> 100 µM,–,> 100 µM
